Results on 19 compounds are retold here after patent publication US6274334A, “Monoclonal antibody, cell line and immunoassay for ractopamine” (The United States of America as represented by the …, priority 2000, dated 2001).

Where “and” joins values, the source holds several entries; their conditions need not be identical. Equal values may be shown once. Where a name gives a salt, the structure may show the parent alone.

By IC50 is commonly meant the concentration needed to halve the response being measured.

The test system of series [1] is antibody produced by hybridoma 5G10. Briefly: Competitive indirect ELISA for specificity of the 5G10 antibody (buffer). In kind it is binding, mouse. The note with it: for IC50: means of three separate experiments on three different days, racemic ractopamine average of 15 experiments; for Cross-reactivity: ratio of IC50 for racemic ractopamine to that of test compound times 100; for poorer ligand relative to (1R,3R) stereoisomer of ractopamine: relative to (1R,3R) ractopamine; for competition curve: competitors up to 10,000 ng/mL. As for the experimental part:
The supernatant culture fluid from the cloned hybridomas may also be screened to select for those producing antibodies having a high affinity for ractopamine. Affinity may be measured using a variety of well known techniques, such as ELISA, RIA or equilibrium dialysis using labelled ractopamine. Competitive indirect ELISA (CI-ELISA) is preferred, and is conducted at a final antibody concentration (dilution from tissue culture supernatant) to give 50% of maximal binding to a ractopamine coated substrate or assay well. In accordance with this embodiment, the antibody containing supernatant is added to a ractopamine conjugate-coated solid substrate such as the wells of an assay plate, together with a range of concentrations of free ractopamine as a competitor. Following incubation and washing, bound antibody in the wells is determined in the same manner as the indirect-ELISA. Percent inhibition may be calculated as (1-B/B0)×100 where B is the optical density (OD) of a well with a competitor and B0 is the mean OD of the wells without competitor (control). […] However, for even greater accuracy, the affinity may be alternatively measured at 50% inhibition (IC50).
(§1) The checkerboard method was used to determine the optimum amount of coating antigen-ractopamine-glutarate-BSA (0.1 to 1 μg/well), primary antibody (1:4000 to 1:14,000), and secondary antibody (1:5000 to 1:50,000) required for the indirect competition ELISA. […] Ninety-six well flat bottom ELISA plates were coated with 500 ng/well of ractopamine-glutarate-BSA in 50 mM bicarbonate buffer, pH 9.6, and allowed to shake for 2 hours using an orbital shaker after which the plates were washed 5 times with PBST. Excess binding sites in each well were blocked by incubating with a 1% solution of Teleostean® cold water fish gelatin for 1 hour after which each well was washed 5 times with PBST. Primary antibody (5G10), diluted to 1:14,000, was added (50 μL/well) in the presence of competitor (100 μL/well) and was incubated for 1.5 hours. Competitors were incubated at concentrations of 0, 0.1, 0.5, 1, 5, 10, 50, 100, 500, 1000, 5000, and 10,000 ng/mL. A racemic ractopamine calibration curve was used in every experiment as a quality control. Washing wells five times with PBST terminated the reactions. Goat anti-mouse IgG peroxidase conjugate, diluted 1:50,000 (100 μL/well), was incubated for 1 hour. A TMB substrate solution was used during color development (30 min); the color development was stopped by adding 50 μL/well of 2 N H2 SO4. All incubations were conducted at 37° C. The plates were read at 450 nm and the data analyzed using a four-parameter logistic equation for the competitors that produced competition curves.
Background: ELISA stands for enzyme-linked immunosorbent assay.

The subject of series [2] is 5G10 monoclonal antibody. Briefly: Competitive ELISA in diluted bovine urine (matrix effects). In kind it is binding, mouse. As for the experimental part: as §1
Ractopamine (0, 0.1, 0.5, 1, 5, 10, 50, 100, 500, 1000, 5000, and 10,000 ng/mL) was added to bovine urine samples diluted 1:2, 1:5, 1:10, and 1:20 with PBST. Urine was collected from a Holstein cow that had not received any ractopamine treatment. Immunoassays in diluted matrices were run according to the procedure described in Example 2. The resulting competition data were fit to a four-parameter logistic equation using the program manager provided by the plate reader (Bio-Rad® Laboratories, Hercules, Calif.) and the IC50 values were determined. The IC50 and B0 from each diluted urine curve were compared with IC50 and B0 values generated from the PBST standard curve. Ractopamine in a 1:10 urine dilution at concentrations of 1, 5, 10, 20 ng/mL were divided and stored at -20° C. until used. For determination of intra-assay variation, each concentration of the spiked urine samples was pipetted into 12 wells, along with the appropriate standard curve ([…], 12 levels) and the data processed using the spiked samples as replicated unknowns. Inter-assay variation was determined in a similar manner on five separate days with duplicate wells for each level of spiked sample.

Series [3] relates to ractopamine antibody. Briefly: Immunoaffinity column retention. The series is classed as binding, mouse. Conditions: C-14 labeled, eluted with 0-100% MeOH. As for the experimental part: Ten milliliters of acites containing ractopamine antibody were diluted with 0.1 M acetate buffer (1:3) and centrifuged. The diluted ascites was passed through a protein-G column and non-bound material was washed off with 0.1 M acetate buffer, pH 5.0, followed by 0.1 M glycine, pH 2.8 to elute the IgG. The protein concentration was determined by OD280 and confirmed by the method of Bradford. The IgG purity was confirmed by 10% SDS-PAGE. Purified IgG was conjugated with CNBr-Sepharose according to a standard procedure. Five milligrams of IgG was conjugated with 1 mL of CNBr-Sepharose to produce the immunoaffinity beads. The immunoaffinity beads were packed to a screening column. A solution containing approximately equal amounts of C-14 labeled ractopamine and ractopamine glucuronide was applied to the column. The column was subsequently eluted with 0, 10%, 30%, 50%, 70% and 100% MeOH; eluants were collected and counted for C-14 activity to verify recoveries. […] Thus, the ractopamine IAC retained both ractopamine and ractopamine metabolites, and has the potential to be used for the rapid isolation of ractopamine and (or) ractopamine metabolites from solution. Such a technique would have wide application in the preparation of samples undergoing a ractopamine confirmatory assay.

In series [4] the test system is polyclonal antibodies. The note with it: polyclonal antibodies generated from rabbits; cited from earlier work.
Series [5] concerns hogs. The note with it: dietary, relative to untreated control animals; cited from earlier work.
For series [6] the following is noted: Wicker et al. 1995; cited from earlier work.
For series [7] the following is noted: in words; cited from earlier work.
The conditions of series [8]: species dosed with ractopamine HCl; cited from earlier work.

Consider `CC(CCc1ccc(O)cc1)NCCc1ccc(O)c(O)c1` (racemic) [Dobutamine], for which, in series [1], the IC50 was 50.3 ± 8.1 ng/mL and the Cross-reactivity was found to be 5.3%.

In the case of `CC(CCc1ccc(O)cc1)NCC(O)c1ccc(O)cc1` (racemic) [Ractopamine (racemic), (1R*, 3R*), (1R*, 3S*)-4-hydroxy-β-[[[3-(4-hydroxyphenyl)-1-methylpropyl]amino]methyl]-benzenemethanol hydrochloride], in series [1] (80% B/B0 (IC20)), the limit of detection worked out at 0.5 ng/mL. In addition, the half-inhibitory concentration (IC50) in series [1] (hydrochloride) came out at 2.69 ± 0.36 ng/mL; in series [1] (listed as racemic ractopamine, hydrochloride), 2.7 ng/mL; in series [2] (buffer (PBST)), 2.49 ng/mL; in series [2] (urine dilution 1:2), 11.58 ng/mL; in series [2] (urine dilution 1:5), 4.62 ng/mL; in series [2] (urine dilution 1:10), 3.16 ng/mL. The IC50 in series [2] (urine dilution 1:20) is 3.02 ng/mL; in series [4], 4.2 ng/mL. Further, the Cross-reactivity in series [1] is recorded as 100%. Besides, the “retention on immunoaffinity column” value in series [3] is “The radioactivity was mainly in the 50% and 100% MeOH fractions”. Also, in series [5], the “growth and carcass effects” value was “increased growth rates, feed efficiencies, and greater yields of boneless, closely trimmed retail cuts”. Also, the “cross-reaction in immunoassay kits” value in series [6] is given as “cross-react poorly with ractopamine”.

For the compound `CC(CCc1ccc(O[C@@H]2O[C@H](C(=O)O)[C@@H](O)[C@H](O)[C@H]2O)cc1)NCC(O)c1ccc(O)cc1` (single isomer, unassigned) [Ractopamine glucuronide A], in series [1], the half-inhibitory concentration (IC50) is 263 ± 20 ng/mL, the Cross-reactivity is recorded as 1% and the “poorer ligand relative to (1R,3R) stereoisomer of ractopamine” value is reported as “over 100 times”.

In the case of `CC(CCc1ccc(O[C@@H]2O[C@H](C(=O)O)[C@@H](O)[C@H](O)[C@H]2O)cc1)NCC(O)c1ccc(O)cc1` (single isomer, unassigned) [Ractopamine glucuronide B], in series [1], the IC50 stood at 87.8 ± 5.0 ng/mL, the Cross-reactivity is 3.1% and the “poorer ligand relative to (1R,3R) stereoisomer of ractopamine” value is “over 100 times”.

On to `C[C@H](CCc1ccc(O)cc1)NC[C@H](O)c1ccc(O)cc1` [(1R, 3R) -ractopamine], for which, in series [1] (in PBST), the detection limit was 0.1 ng/mL. Moreover, in series [1], the 50% inhibitory concentration (IC50) is recorded as 0.55 ± 0.09 ng/mL and the Cross-reactivity was found to be 489%. Besides, in series [7], the biological activity result is reported as “confers biological activity to the molecule”.

For `C[C@@H](CCc1ccc(O)cc1)NC[C@H](O)c1ccc(O)cc1` [(1R, 3S) -ractopamine], in series [1], the IC50 is given as 291 ± 32 ng/mL and the Cross-reactivity is 0.9%. Also, in series [1] (α-methyl group in (S) configuration), the “decrease of antibody binding (factor)” value is 100.

In the case of `C[C@H](CCc1ccc(O)cc1)NC[C@@H](O)c1ccc(O)cc1` [(1S, 3R) -ractopamine], in series [1], the IC50 is 2.00 ± 0.37 ng/mL and the Cross-reactivity is 134%.

Take `C[C@@H](CCc1ccc(O)cc1)NC[C@@H](O)c1ccc(O)cc1` [(1S, 3S) -ractopamine]: in series [1], the half-maximal inhibitory concentration (IC50) is recorded as 140 ± 23 ng/mL and the Cross-reactivity stood at 1.9%.

Consider `CCCCNCC(O)c1ccc(O)cc1` (stereo not drawn) [Bamethane], for which, in series [1], the IC50 is on record as 831 ± 11 ng/mL and the Cross-reactivity was found to be 0.3%.

Turning to `CC(C)(C)NCC(O)c1cc(Cl)c(N)c(Cl)c1` (stereo not drawn) [Clenbuterol], in series [1], the competition curve result was “did not produce competition curves” and the Cross-reactivity is listed as < 0.1%. Moreover, the “cross reaction with the 5G10 antibody” value in series [1] (in words) is “did not cross react with the 5G10 antibody”.

For `CC(Cc1ccc(O)cc1)NCC(O)c1cc(O)cc(O)c1` (stereo not drawn) [Fenoterol], in series [1], the IC50 is 2682 ± 350 ng/mL and the Cross-reactivity was determined as 0.1%.

As to `CC(COc1ccccc1)NC(C)C(O)c1ccc(O)cc1` (stereo not drawn) [Isoxsuprine], in series [1], the 50% inhibitory concentration (IC50) is 1391 ± 127 ng/mL and the Cross-reactivity was determined as 0.2%.

On to `COc1ccc(C(O)CNC(C)CCc2ccc(O)cc2)cc1` (stereo not drawn) [LY227273], for which, in series [1], the half-inhibitory concentration (IC50) is 2.6 ng/mL and 2.62 ± 0.08 ng/mL; the Cross-reactivity is on record as 103%.

Turning to `C[C@H](CCc1ccc(O)cc1)NCCc1ccc(O)cc1` [R-des-OH-ractopamine], in series [1], the IC50 is 1.59 ± 0.09 ng/mL and the Cross-reactivity was 169%.

With `CC(CCc1ccc(O)cc1)NCC(O)c1ccc(O[C@@H]2O[C@H](C(=O)O)[C@@H](O)[C@H](O)[C@H]2O)cc1` (stereo partly drawn) [Ractopamine glucuronide C], the “affinity relative to (1R,3R) ractopamine” value in series [1] (in words) is “bound to the antibody with an affinity almost as great as (1R,3R) ractopamine”. In series [1], the half-maximal inhibitory concentration (IC50) came to 0.70 ± 0.04 ng/mL and the Cross-reactivity is reported as 384%. Besides, the identification as metabolite entry in series [8] was “has been identified in various species dosed experimentally with ractopamine HCl”.

Take `CC(NCCc1ccc(O)cc1)C(O)c1ccc(O)cc1` (stereo not drawn) [Ritodrine]: in series [1], the IC50 is reported as 73.8 ± 4.4 ng/mL and the Cross-reactivity was 3.6%.

For the compound `C[C@@H](CCc1ccc(O)cc1)NCCc1ccc(O)cc1` [S-des-OH-ractopamine], in series [1], the IC50 is recorded as 25.2 ± 1.9 ng/mL and the Cross-reactivity is recorded as 10.7%.

Consider `CC(C)(C)NCC(O)c1ccc(O)c(CO)c1` (stereo not drawn) [Salbutamol], for which, in series [1], the competition curve entry is listed as “did not produce competition curves” and the Cross-reactivity is given as < 0.1%.

Take `OCc1cc(C(O)CNCCCCCCOCCCCc2ccccc2)ccc1O` (stereo not drawn) [Salmeterol]: in series [1], the 50% inhibitory concentration (IC50) worked out at 1519 ± 116 ng/mL and the Cross-reactivity is 0.2%.
